From patent US20240197691A1, “TACROLIMUS COMPOSITIONS AND METHODS OF USE” (CN2 THERAPEUTICS, INC., priority 2022, published 2024)
“And” between values parts separate entries of the source, which are not always exact repeats. Equal entries are not always repeated.

What was measured:
[1] = Surface tension (pendant drop); assay type: physicochemical; settings: Theta Lite Optical Tensiometer, 5 μL
Experimental: The Theta Lite Optical Tensiometer, Pendant drop Method, 5 μL sample size was used to measure the surface tension of the tacrolimus compositions.

[2] = Contact angle on parafilm; assay type: physicochemical; settings: 20 μL on parafilm, ambient temperature
Experimental: The Theta Lite Optical Tensiometer, Dynamic Contact Angle Measurement, 20 μL sample size was used to measure the contact angle of the tacrolimus compositions of parafilm of 73.50 and 73.20. The tacrolimus composition has better wettability on the hydrophobic surface of parafilm when compared to water (97.90 and 99.90).

[3] = Forced degradation (thermal, acidic, basic, oxidative, UV); assay type: physicochemical
Experimental: Forced degradation of the drug product by thermal, acidic, basic, oxidative and UV stress conditions was performed. Forced degradation for the thermal, acidic and oxidative conditions were performed at 40° C., as it was anticipated that the drug would be stable under these conditions, based on its structure. UV and basic conditions were performed at ambient conditions. The drug product is most susceptible to basic stress conditions, and to a lesser extent is susceptible to UV and oxidative conditions. A summary of all the degradation peaks as a function of the stress condition can be found in Table 28.

[4] = Gamma irradiation of Tacrolimus; assay type: physicochemical
From the text: In certain embodiments, the composition can be irradiated before administration to a subject. For example, at least one component of the composition, such as, for example, tacrolimus, can undergo gamma irradiation before the final composition is created or the final composition can undergo gamma irradiation. In certain embodiments, the composition can be irradiated at a dose ranging from about 1 kilo-Gray (kGy) to about 100 kGy, preferably about 10 kGy to about 75 kGy, most preferably about 15 kGy to about 40 kGy.
The composition can be irradiated at a dose ranging from about 1 kilo-Gray (kGy) to about 100 kGy, preferably about 10 kGy to about 75 kGy, most preferably about 15 kGy to about 40 kGy (Table 36).

[5] = pH 5
[6] = reported; cited from earlier work

## Water
[1]
  Surface Tension: 72 mN/m
[2]
  Contact angle: 97.9 ° and 99.9 °

## C=CC[C@@H]1/C=C(\C)C[C@H](C)C[C@H](OC)[C@H]2O[C@@](O)(C(=O)C(=O)N3CCCC[C@H]3C(=O)O[C@H](/C(C)=C/[C@@H]3CC[C@@H](O)[C@H](OC)C3)[C@H](C)[C@@H](O)CC1=O)[C@H](C)C[C@@H]2OC.O [Tacrolimus]
[3]; Acid, 72h (40° C.)
  Degradant at RRT 0.52, Area %: 0.52 (0.47%)
  Degradant at RRT 1.32, Area %: 1.32 (0.09%)
  Degradant at RRT 1.36, Area %: 1.36 (0.07%)
[3]; Base, 5 min (ambient)
  Degradant at RRT 0.39, Area %: 0.39 (1.52%)
  Degradant at RRT 0.52, Area %: 0.52 (27.62%)
  Degradant at RRT 0.79, Area %: 0.79 (0.97%)
  Degradant at RRT 1.28, Area %: 1.28 (0.20%)
  Degradant at RRT 1.32, Area %: 1.32 (3.02%)
  Degradant at RRT 1.35, Area %: 1.35 (2.37%)
[3]; Peroxide, 48 h (40° C.)
  Degradant at RRT 0.43, Area %: 0.43 (2.03%)
  Degradant at RRT 1.18, Area %: 1.18 (0.17%)
  Degradant at RRT 1.20, Area %: 1.20 (0.05%)
  Degradant at RRT 1.25, Area %: 1.25 (0.35%)
  Degradant at RRT 1.27, Area %: 1.27 (0.16%)
  Degradant at RRT 1.29, Area %: 1.29 (0.10%)
  Degradant at RRT 1.33, Area %: 1.33 (0.06%)
  Degradant at RRT 1.44, Area %: 1.44 (0.08%)
[3]; Thermal, 72 h (40° C.)
  Degradant at RRT 0.43, Area %: 0.43 (0.96%)
[3]; UV, 72 h (ambient)
  Degradant at RRT 0.38, Area %: 0.38 (0.36%)
  Degradant at RRT 0.45, Area %: 0.45 (0.88%)
  Degradant at RRT 0.53, Area %: 0.53 (3.07%)
  Degradant at RRT 0.58, Area %: 0.58 (0.40%)
  Degradant at RRT 1.03, Area %: 1.03 (1.30%)
  Degradant at RRT 1.10, Area %: 1.10 (0.94%)
  Degradant at RRT 1.13, Area %: 1.13 (2.90%)
  Degradant at RRT 1.17, Area %: 1.17 (5.21%)
  Degradant at RRT 1.21, Area %: 1.21 (13.81%)
[4]; 15 kGy solid
  % impurities: 0.82%
  Total [Tac] in sample measured: 0.96 mg/g
[4]; 25 kGy solid
  % impurities: 0.88%
  Total [Tac] in sample measured: 0.92 mg/g
[4]; 40 kGy solid
  % impurities: 0.91%
  Total [Tac] in sample measured: 0.91 mg/g
[4]; Control solid
  % impurities: 0.56%
  Total [Tac] in sample measured: 0.99 mg/g
[5]
  Solubility of Tacrolimus in the supernatant: ≤ 3.2 µg/g
[6]
  log P: 3.3
